Assay results: publication PMC6009956, “Design, synthesis and biological activity of N^4-phenylsubstituted-7H-pyrrolo[2,3-d]pyrimidin-4-amines as dual inhibitors of aurora kinase A and epidermal growth factor receptor kinase” (Journal of Enzyme Inhibition and Medicinal Chemistry, 2017)
Where two headings read alike, the source gives them in different places.

How the values were obtained:
FADU cells = experiment: Cell killing, PI staining and FACS, FADU; assay type: cell-based
Procedure: (§1) FADU, BHY, SAS and CAL cell lines were obtained from ATCC-LGC and were cultured in DMEM (Invitrogen, Germany) supplemented with 10% of heat activated bovine serum (FBS, PAA, Germany), 1% of glutamine, 1% of penicillin-streptomycin (Invitrogen, Germany). To measure proliferation, SCCHN cells were split, reseeded (5 × 10^5 in 25 cm^2 flasks) and counted at the indicated time points. Cells were then replated at the initial density. The fold increase in cell number was calculated, all given results are based on triplicate experiments. To assess cell death 5 × 10^5 cells were stained with propidium iodide (PI, Sigma, Germany). Following incubation, cells were washed, resuspended in PBS, and analysed by flow cytometry. The fraction of PI-positive cells is reported as dead cell fraction.
(§2) Figure 3. […] Cells were incubated with compound 2 for 48 h and then subjected to PI staining and FACS analysis. PI-positive cell fraction as measure of cell death is reported. (B) Four SCCHN cell lines were incubated with 100 μM of compound 2 and counted on the indicated days. Experiments in triplicates, fold growth shown. (C) EGFR expression of SCCHN cell lines. EGFR high and low as detected by western blot analysis (D) The SCCHN cell lines were incubated with 100 μM of compound 2 for 72 h. Percent PI positive cells are given. Experiments in triplicates.

[1] = test system: EGFR (pEGFR, pERK, p-AKT) in BHY cells; experiment: Western blot of EGFR downstream targets in BHY cells; assay type: cell-based; conditions: 100 μM
Procedure: (§3) Protein extracts (50 μg per lane) were electrophoretically separated on SDS-PAGE gels, transferred to membranes (Protran, Schleicher & Schuell, Dassel, Germany) and blotted with specific antibodies (actin, aurora A, aurora B: all from Sigma, Munich, Germany; S10-HH3: Millipore, Schwalbach, Germany; EGFR: Santa Cruz, Heidelberg, Germany; pEGFR: Invitrogen, Darmstadt, Germany; pAKT, pERK: both from New England Biolabs, Frankfurt, Germany).
(§4) Figure 4. Effects of compound 2 on EGFR and aurora kinases in growing SCCHN cell lines (A) Western blot analysis of EGFR (pEGFR, pERK, p-AKT) and aurora A (p-HH3) downstream target proteins following incubation with 100 μM compound 2 for the indicated time points in BHY and FADU SCCHN cell lines. (B) BHY and CAL cell lines treated for the indicated time points with 200 nM cetuximab. Western blot analysis of EGFR downstream targets. (long exposure and short exposure). […] Western blot analysis of p-HH3 at the indicated time points. Asterisk (*) represents unspecific band.

[2] = test system: Phosphorylated histone H3 (p-HH3) in BHY and FADU SCCHN cell lines; experiment: Western blot of p-HH3 in BHY and FADU cells; assay type: cell-based; conditions: 100 μM
Procedure: as §3, §4

SAS cells = experiment: Proliferation (cell counting), SAS; assay type: cell-based; conditions: 100 µM
Procedure: as §1, §2

aurora A kinase (AURKA) = molecular target: T1, aurora A kinase (AURKA) (Homo sapiens, UniProt O14965); experiment: ADP-Glo kinase assay, Aurora A; assay type: biochemical
T1 construct: purchased BPS Bioscience (assay run externally by the vendor)
T1 sequence (O14965 1-403): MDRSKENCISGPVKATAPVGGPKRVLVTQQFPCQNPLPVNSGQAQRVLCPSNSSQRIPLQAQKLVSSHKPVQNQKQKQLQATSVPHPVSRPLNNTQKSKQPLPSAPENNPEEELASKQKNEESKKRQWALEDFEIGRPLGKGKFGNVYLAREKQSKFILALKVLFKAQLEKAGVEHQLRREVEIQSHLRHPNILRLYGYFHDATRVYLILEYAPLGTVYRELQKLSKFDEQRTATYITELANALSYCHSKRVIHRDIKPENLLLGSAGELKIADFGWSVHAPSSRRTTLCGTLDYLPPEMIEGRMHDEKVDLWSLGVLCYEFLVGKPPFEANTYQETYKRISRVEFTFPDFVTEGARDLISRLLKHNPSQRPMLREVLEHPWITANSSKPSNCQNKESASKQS

FADU and BHY cell lines = experiment: Cell cycle analysis (PI, flow cytometry); assay type: cell-based; conditions: 100 μM, 24 and 48 h; more pronounced in BHY
Procedure: For analysis of cell cycle distribution, cells were fixed with 70% of ethanol and stained with PI. Flow cytometric analysis of DNA content was performed using PI in the FL2 chanel in linear mode. Cells with less than diploid DNA content were considered dead (sub-G1).
Figure 5. Cell cycle analysis of FADU and BHY cell lines incubated for 24 and 48 h with 100 μM of compound 2. Cell cycle distribution according to PI uptake, shown is the cell fraction subG1 for cell death and in G1, S and G2M phase of the cell cycle. n = 3, * p < .01, ** p < .001.

SMILES: Brc1cccc(Nc2ncnc3[nH]ccc23)c1 [Compound 2, N^4-(3-bromophenyl)-7H-pyrrolo[2,3-d]pyrimidine-4-amine]
- Cell killing (PI positive cells) (FADU cells; FADU, 100 µM, 72 h): efficient cell killing
- IC50 (FADU cells; Homo sapiens, FaDu, 48 h, read-out: IC50 cellular killing (PI-positive fraction)): 150 µM
- EGFR-mediated phosphorylation steps (pEGFR, pERK, p-AKT) [1]: modified
- Effect on histone p-HH3 [2]: Modest effects
- Cell growth (fold growth) (SAS cells): completely inhibited cell growth
- IC50 (aurora A kinase (AURKA); 10 µM ATP, triplicate, read-out: AURKA IC50 ± SD): 1990 ± 50 nM
- IC50 (aurora A kinase (AURKA); 10 µM ATP/0.2 mg/ml Kemptide, read-out: Aurora A IC50 (dose-response curve, supplement)): 2000 nM
- Aurora A % Activity Set1 (aurora A kinase (AURKA); Log[nM] 0): 107%
- Aurora A % Activity Set2 (aurora A kinase (AURKA); Log[nM] 0): 94%
- Aurora A % Activity Set3 (aurora A kinase (AURKA); Log[nM] 0): 94%
- Aurora A % Activity Set1 (aurora A kinase (AURKA); Log[nM] 1.0): 109%
- Aurora A % Activity Set2 (aurora A kinase (AURKA); Log[nM] 1.0): 97%
- Aurora A % Activity Set3 (aurora A kinase (AURKA); Log[nM] 1.0): 96%
- Aurora A % Activity Set1 (aurora A kinase (AURKA); Log[nM] 1.5): 109%
- Aurora A % Activity Set2 (aurora A kinase (AURKA); Log[nM] 1.5): 96%
- Aurora A % Activity Set3 (aurora A kinase (AURKA); Log[nM] 1.5): 101%
- Aurora A % Activity Set1 (aurora A kinase (AURKA); Log[nM] 2.0): 102%
- Aurora A % Activity Set2 (aurora A kinase (AURKA); Log[nM] 2.0): 97%
- Aurora A % Activity Set3 (aurora A kinase (AURKA); Log[nM] 2.0): 105%
- Aurora A % Activity Set1 (aurora A kinase (AURKA); Log[nM] 2.5): 94%
- Aurora A % Activity Set2 (aurora A kinase (AURKA); Log[nM] 2.5): 88%
- Aurora A % Activity Set3 (aurora A kinase (AURKA); Log[nM] 2.5): 95%
- Aurora A % Activity Set1 (aurora A kinase (AURKA); Log[nM] 3.0): 70%
- Aurora A % Activity Set2 (aurora A kinase (AURKA); Log[nM] 3.0): 66%
- Aurora A % Activity Set3 (aurora A kinase (AURKA); Log[nM] 3.0): 69%
- Aurora A % Activity Set1 (aurora A kinase (AURKA); Log[nM] 3.5): 35%
- Aurora A % Activity Set2 (aurora A kinase (AURKA); Log[nM] 3.5): 34%
- Aurora A % Activity Set3 (aurora A kinase (AURKA); Log[nM] 3.5): 34%
- Aurora A % Activity Set1 (aurora A kinase (AURKA); Log[nM] 4.0): 16%
- Aurora A % Activity Set2 (aurora A kinase (AURKA); Log[nM] 4.0): 14%
- Aurora A % Activity Set3 (aurora A kinase (AURKA); Log[nM] 4.0): 14%
- Aurora A % Activity Set1 (aurora A kinase (AURKA); Log[nM] 4.5): 6%
- Aurora A % Activity Set2 (aurora A kinase (AURKA); Log[nM] 4.5): 5%
- Aurora A % Activity Set3 (aurora A kinase (AURKA); Log[nM] 4.5): 5%
- Aurora A % Activity Set1 (aurora A kinase (AURKA); Log[nM] 5.0): 5%
- Aurora A % Activity Set2 (aurora A kinase (AURKA); Log[nM] 5.0): 5%
- Aurora A % Activity Set3 (aurora A kinase (AURKA); Log[nM] 5.0): 5%
- Cell cycle distribution (FADU and BHY cell lines): cell cycle arrest in G2M
